Results: US6372727B1, “Metalloporphyrin treatment of neurologic disease” (UAB Research Foundation, priority 1999, dated 2002)

Tests used:
[1] = Solubility and passage of membranes (statement); type: physicochemical
[2] = Peroxynitrite-mediated nitration of GYA peptide; type: biochemical; conditions: percent of added peroxynitrite
[3] = test system: isolated hearts; test: Isolated hearts, ischemia and reperfusion
[4] = test system: ALS-SOD1 (G93A) transgenic mice; test: Survival of ALS-SOD1 (G93A) transgenic mice; type: in vivo
Experimental: FIG. 13A: Transgenic mice (n=9) were injected intraperitoneally with 3 mg/kg/day of a low molecular weight (844.6) synthetic iron porphyrin. […] Treatment was continued until such time that signs of diaphragm weakness (labored breathing) necessitated sacrifice. A control group of transgenic mice was treated with vehicle only (phosphate-buffered saline). FIG. 13B: Transgenic mice were injected intraperitoneally with 1 mg/kg/day of a low molecular weight (844.6) synthetic iron porphyrin. Treatment began at day 60 prior to the onset of symptoms. A control group of transgenic mice was treated with vehicle only (phosphate-buffered saline).
Mice transgenic for the G93A mutated form of SOD1 are generally accepted as the standard model of motor neuron disease. […] This compound extended the mean survival time by 13 days (from 127 to 140 days) (FIG. 13A).
A group of G93A mice was treated with 1 mg/kg of FeTCPP intraperitoneally beginning at 60 days of age. As with the control group in FIG. 13A, none of the control group in this test survived past 132 days. However, the probability of survival at 140 days was about 37% and at approximately 180 days survival was still at 20%.

[5] = test system: cultured motor neurons; test: Protection of cultured motor neurons from growth factor withdrawal; type: cell-based
Experimental: Culture Motor neurons were prepared from embryonic day 15 (E15) rat spinal cords by a combination of metrizamide gradient centrifugation and immunopanning with the monoclonal antibody IgG192 (Chandler et al., J. Biol. Chem. 259:6882-6889, 1984) as previously described (Estevez et al., J Neurosci 18:923-931, 1998; Henderson C E, Bloch-Gallego E, Camu W (1995): Purification and culture of embryonic motorneurons. In Cohen J, Wilkin G (eds): Neural Cell Culture: A Practical Approach. Oxford, England: IRL Press, pp 69-81). Long-term cultures of motor neurons were performed as described by Pennica et al. (Pennica et al., Neuron 17:63-74, 1996). Briefly, motor neurons were plated at a density of 200 cells/cm2 on 35 mm dishes precoated with polyornithine-laminin in Neurobasal medium supplemented with B27 (Life Technologies, Grand Island, N.Y.), 2% horse serum, 0.5 mM L-glutamine, 25 μM 2-mercaptoethanol and 25 μM L-glutamate. Every 3-4 days ¾ of the culture medium was replaced by fresh medium lacking L-glutamate and containing sufficient quantities of BDNF or FeTCPP to supplement the 2 ml of medium in the dish. More than 94% of the cells were immunoreactive for the p75 low-affinity neurotrophic receptor (p75NTR) and Islet ½, which are markers for motor neurons. The experiments were repeated at least 2 times using the same lot of Neurobasal medium and B 27 supplement.
The number of motor neurons with neurites longer than 4 soma diameters present in parallel cultures treated with BDNF at a final concentration of 100 pg/ml 24 h after plating or culture media replacement was considered 100% motor neuron survival. FeTCPP was resuspended in complete Neurobasal medium at a 5 mM concentration. Dilutions were performed of the stock solution to add 20 μl per dish.
Rat motor neurons survive many days in culture when brain-derived neurotrophic factor (BDNF) is added to the culture media. Because motor neurons are the cells that preferentially die in ALS, primary cultures of motor neurons represent the best non-animal model of ALS. Withdrawal of BDNF results in apoptotic death of >70% of motor neurons within 24 h. Cell death was correlated with expression of the neuronal form of nitric oxide synthase (nNOS) and the production of peroxynitrite, as evidenced by protein tyrosine nitration. When FeTCPP is added to the culture media in place of BDNF and motor neuron survival is assessed at 24 h, some protection is seen at concentrations as low as 0.01 μM (FIG. 10A). […] Additionally, a comparison of the effect of FETCPP and its tetra-methyl ester derivative, TMeO-FeTCPP, on motor neuron survival at 72 hr.

[6] = 1 mg/kg intraperitoneally beginning at 60 days of age

O=C(O)c1ccc(-c2c3nc(c(-c4ccc(C(=O)O)cc4)c4ccc([n-]4)c(-c4ccc(C(=O)O)cc4)c4nc(c(-c5ccc(C(=O)O)cc5)c5ccc2[n-]5)C=C4)C=C3)cc1.[Fe+2] [FeTCPP, Iron (III) meso 5,10,15,20-tetrakis-(4-carboxy-phenyl) porphyrin]
passage of cell membranes and the blood-brain-barrier [1]: readily cross cell membranes and the blood-brain-barrier
water solubility [1]: very water soluble
average efficiency of nitration catalysis [2]: 22.7%
protection of isolated hearts [3]: protects isolated hearts from the injurious effects of ischemia and reperfusion
probability of survival at 140 days [4, 6]: about 37%
survival at approximately 180 days [4, 6]: 20%
mean survival time ([4]; 5 mg/kg, treatment from onset of symptoms): 140 days
extension of mean survival time ([4]; 5 mg/kg, treatment from onset of symptoms, versus vehicle): 13 days
progression of motor neuron death in mice ([4]; G93A mutant of Cu,Zn superoxide dismutase transgene): slow the progression of motor neuron death
upper limit of survival time ([4]; administered at the onset of symptoms): about 148 days
survival of cultured motor neurons deprived of growth factors [5]: prolong survival of cultured motor neurons
long-term motor neuron survival compared with BDNF ([5]; 0.1 μM and 1.0 μM): as effective as BDNF
maximal cell survival ([5]; 0.1 μM, 24 h, in place of BDNF, 100% = BDNF 100 pg/ml): 90%
cell survival ([5]; 100 μM, 24 h, in place of BDNF): 90%
dose-response for survival of motor neurons at 72 h ([5]; 72 h): virtually identical to the 24 h survival results
lowest concentration at which some protection is seen ([5]; added in place of BDNF, survival at 24 h): 0.01 µM
cell survival at day 16 ([5]; lower dose (0.1 μM), long-term culture): 90%
toxicity to motor neurons ([5]; relatively high concentrations, 100 μM): not toxic
